Columns and labels:
[1] = tested on: OCI-AML3 cells; experiment: Tumor-bearing mice transplanted with OCI-AML3 cells, with cytarabine and daunorubicin, T/C (Example 14); format: in vivo; details: oral, 21 days
Method: (§1) Cytarabine (Cylocide Injection 200 mg/10 mL, Nippon Shinyaku Co., Ltd.) was diluted with saline (Otsuka Saline Injection, Otsuka Pharmaceutical Factory Co., Ltd.) to 8 mg/mL. Daunorubicin (Daunomycin for injection 20 mg, Meiji, Seika Pharma Co., Ltd.) was dissolved in saline (Otsuka Saline Injection, Otsuka Pharmaceutical Factory Co., Ltd.) to 0.2 mg/mL.
(§2) OCI-AML3 cells (DSMZ) were intradermally implanted around the ventral region of 7-week old NOD. CB17-PrkdcSCID/J mice (female, The Jackson Laboratory Japan) at 1×10^6 cells/mouse. […] Cytarabine was intraperitoneally administered to the mice at a dose of 80 mg/kg once a day for 5 days. Daunorubicin was intravenously administered to the mice at a dose of 1 mg/kg once a day for 3 days. The tumor volume was measured over time from the start of the administration, and the reduction effect of the tumor volume due to the compound-administration was evaluated. The tumor volume was calculated by the following formula using short axis and long axis of the tumor measured with an electronic caliper (Mitutoyo).
(§3) The control administration group in which only the solvent was administered and the test substance administration group were compared, and T/C was calculated using the following formula to evaluate the antitumor effect.

[2] = tested on: MOLM-13 cells; experiment: Tumor-bearing mice transplanted with MOLM-13 cells, with gilteritinib, T/C (Example 12); format: in vivo; details: MOLM-13 tumor-bearing mice, oral, 18 days
Method: The antitumor effects of the present compound and gilteritinib were evaluated. The present compound was weighed and dissolved in 0.5 w/v % Methyl Cellulose 400 solution to give the compound concentrations of 20 mg/mL and 10 mg/mL. Gilteritinib was weighed and suspended in 0.5 w/v % Methyl Cellulose 400 solution to give the compound concentrations of 3 mg/mL.
MOLM-13 cells (DSMZ) were intradermally implanted around the ventral region of 5-week old NOD. CB17-PrkdcSCID/J mice (female, The Jackson Laboratory Japan) at 1×10^6 cells/mouse. After confirming the engraftment of MOLM-13 cells 6 days after the transplantation, the present compound was orally administered to the mice at a dose of 100 mg/kg or 200 mg/kg, and gilteritinib was orally administered to the mice at a dose of 30 mg/kg, once a day for 18 days. The tumor volume was measured over time from the start of the administration, and the reduction effect of the tumor volume due to the compound-administration was evaluated. The tumor volume was calculated by the following formula using short axis and long axis of the tumor measured with an electronic caliper (Mitutoyo).
as §3

[3] = human, in vivo
[4] = Phase 1/2 clinical study, plasma pharmacokinetic evaluation; format: in vivo; details: human, oral, 140 mg, Cycle 1 Day 1, 140 mg BID Arm B (with azole), N=2, mean
[5] = tested on: HOXA9, MEIS1, PBX3, CD11b gene expression; experiment: Phase 1/2 clinical study, pharmacodynamic gene expression biomarkers in bone marrow aspirate; format: in vivo, human
Excerpt: All dose levels and time points are combined.
(2) FIGS. 6A and 6B show average of the maximum percentage change of gene expression of leukemic (HOXA9, MEIS1, PBX3) and differentiation (CD11b) biomarkers in bone marrow aspirate of patients from all dose levels, for whom a baseline and post-baseline sample were collected.

[6] = tested on: OCI-AML3 cells; experiment: Tumor-bearing mice transplanted with OCI-AML3 cells, with venetoclax and azacitidine, T/C (Example 13); format: in vivo; details: oral, 21 days
Method: The present compound was weighed and dissolved in 0.5 w/v % Methyl Cellulose 400 solution to give the compound concentrations of 20 mg/mL and 10 mg/mL. Venetoclax was weighed and suspended in a mixed solution of Phosal 50 propylene glycol (60%)/Polyethylene glycol-400 (30%)/Ethanol (10%) to give the compound concentration of 5 mg/mL. Azacitidine was weighed and dissolved in saline to give the compound concentration of 0.3 mg/mL.
OCI-AML3 cells (DSMZ) were intradermally implanted around the ventral region of 6-week old NOD. CB17-PrkdcSCID/J mice (female, The Jackson Laboratory Japan) at 1×10^6 cells/mouse. […] The tumor volume was measured over time from the start of the administration, and the reduction effect of the tumor volume due to the compound-administration was evaluated. The tumor volume was calculated by the following formula using short axis and long axis of the tumor measured with an electronic caliper (Mitutoyo).
as §3

[7] = tested on: MOLM-13 cells; experiment: Tumor-bearing mice transplanted with MOLM-13 cells, with cytarabine and daunorubicin, T/C (Example 11); format: in vivo; details: MOLM-13 tumor-bearing mice, oral, 17 days
Method: as §1
as §2, with “MOLM-13” for “OCI-AML3”, “8-week” for “7-week”
as §3

[8] = tested on: acute leukemia with MLLr or NPM1m; experiment: Phase 1/2 clinical study, clinical activity (responses by ELN 2017); format: in vivo, human
[9] = patients with MLLr or NPM1m AML, all dose levels and time points (FIG. 5)
[10] = patients with target mutations, all dose levels (FIGS. 6A, 6B)
[11] = patients, notable with MLLr or NPM1m (Example 3)
[12] = MLLr + NPM1m, ≥140 mg BID, n=21

C=C1C[C@@H]2CC[C@H]1[C@@H](C(=O)N1CCC3(CC1)CN(c1ncncc1Oc1ccc(F)cc1C(=O)N(C(C)C)C(C)C)C3)N2 [the present compound, 5-fluoro-2-[(4-{7-[(1S,3S,4R)-5-methylidene-2-azabicyclo[2.2.2]octane-3-carbonyl]-2,7-diazaspiro[3.5]nonan-2-yl}pyrimidin-5-yl)oxy]-N,N-di(propan-2-yl)benzamide]
T/C ([1]; 100 mg/kg): 53.1% | T/C ([1]; 200 mg/kg): 41.7% | T/C ([2]; 100 mg/kg): 43.8% | T/C ([2]; 200 mg/kg): 1.8% | SAE COVID-19, CTCAE Grade [3]: 3 | Cmax [4]: 3100 ng/mL | gene expression of CD11b in bone marrow aspirate [5, 9]: increases | gene expression of HOXA9, PBX3 and MEIS1 in bone marrow aspirate [5, 9]: Clear decreases | gene expression of CD11b in bone marrow aspirate [5, 10]: increases | gene expression of HOXA9, PBX3 and MEIS1 in bone marrow aspirate [5, 10]: Clear decreases | change in CD11b [5, 11]: increases | change in HOXA9, PBX3 and MEIS1 [5, 11]: decreases | T/C ([6]; 100 mg/kg): 47.1% | T/C ([6]; 200 mg/kg): 34.3% | T/C ([7]; 100 mg/kg): 29.8% | T/C ([7]; 200 mg/kg): 0.3% | responders per ELN 2017 ([8]; 43 enrolled, MLLr or NPM1m, 19 evaluable): 5 responders | objective response rate (ORR) by ELN 2017 (CR+CRi+MLFS) ([8]; MLLr (20 AML, 2 ALL), ≥140 mg BID, no prior menin inhibitor (13/22)): 59.1% | CR + CRh (ELN 2017) [8, 12]: 5 (24%) n (%) | Composite CR (ELN 2017) [8, 12]: 7 (33%) n (%) | Objective Response Rate (ELN 2017) [8, 12]: 12 (57%) n (%) | CR+CRh ([8]; MLLr or NPM1m, all dose levels 40-300 mg BID, prior menin inhibitor naïve, finished 1 cycle (6/38)): 16% | ORR ([8]; MLLr or NPM1m, all dose levels 40-300 mg BID, prior menin inhibitor naïve, finished 1 cycle (12/38)): 32% | CR+CRh rate ([8]; MLLr or NPM1m, ≥140 mg BID, prior menin inhibitor naïve, finished 1 cycle (5/22)): 23% | ORR (CR+CRi+MLFS) ([8]; MLLr or NPM1m, ≥140 mg BID, prior menin inhibitor naïve, finished 1 cycle (10/22)): 45% | CR+CRh ([8]; MLLr, ≥140 mg BID (2/12 patients)): 17% | Objective Response Rate (ORR; CR+CRh+CRi+MLFS) ([8]; MLLr, ≥140 mg BID (8/12 patients)): 67% | CR + CRh (ELN 2017) ([8]; MLLr, ≥140 mg BID, n=12): 2 (17%) n (%) | Composite CR (ELN 2017) ([8]; MLLr, ≥140 mg BID, n=12): 5 (42%) n (%) | Objective Response Rate (ELN 2017) ([8]; MLLr, ≥140 mg BID, n=12): 8 (67%) n (%) | CR+CRh ([8]; MLLr, ≥140 mg BID, no prior menin inhibitor (5/22)): 22.7% | CR+CRh ([8]; NPM1m AML, ≥140 mg BID, no prior menin inhibitor (3/13)): 23.1% | ORR ([8]; NPM1m AML, ≥140 mg BID, no prior menin inhibitor (7/13)): 53.8% | CR+CRh ([8]; NPM1m, ≥140 mg BID (3/9 patients)): 33% | ORR ([8]; NPM1m, ≥140 mg BID (4/9 patients)): 44% | CR + CRh (ELN 2017) ([8]; NPM1m, ≥140 mg BID, n=9): 3 (33%) n (%) | Composite CR (ELN 2017) ([8]; NPM1m, ≥140 mg BID, n=9): 3 (33%) n (%) | Objective Response Rate (ELN 2017) ([8]; NPM1m, ≥140 mg BID, n=9): 4 (44%) n (%) | response achieved (ELN 2017) ([8]; a patient with MLLr, 120 mg BID Arm A): MLFS | additional patients with MLLr with response per ELN2017 (CRh/CRi and MLFS) ([8]; lower dose levels): Two | median time to CR+CRh ([8]; overall, ≥140 mg BID): 1.0 months | median time to objective response ([8]; overall, ≥140 mg BID): 1.0 months | Bone marrow blast reduction ([8]; patients with MLLr or NPM1m (FIG. 8)): observed

Reference: patent publication US20260248787A9, “MEDICAMENT FOR TREATING CANCER COMPRISING OPTICALLY ACTIVE AZABICYCLO RING DERIVATIVE” (Sumitomo Pharma Co., Ltd., priority 2023, published 2026)
